Measurements: patent EP1859811B1, “Use of conjugates of amatoxins or phallotoxins with macromolecules for tumor and inflammation therapy” (Faulstich, Heinz, Dr., priority 2006, dated 2007)

Assays:
Jurkat = test: inhibition of proliferation by [3H]thymidine incorporation, Jurkat; format: cell-based; conditions: Jurkat cells (CD3); Fig.3
Method: Monoclonal antibodies were conjugated with ß-amanitin-N-hydoxysuccinimide ester by incubating the antibody in PBS (2mg/mL) with 10-30 equivalents of the activated ß-amanitin derivative at 4°C under gentle shaking. After reaction for 16h the protein derivative was separated from unreacted amanitin by gelfiltration chromatography on Sephadex G25 using PBS as solvent. The combined protein fractions were concentrated to a protein concentration of ca 2 mg/mL and a toxin concentration of ca. 5 x 10^-5M. The ratio toxin : mAB was in the range of 5-15 : 1.
Three different cell lines, MCF-7, Jurkat, and Raji, exposing the specific receptors EpCAM, CD3, and CD71, respectively, were tested for the inhibition of proliferation by such ß-amanitin-monoclonal antibody conjugates, as followed by [^3H]thymidine incorporation. […] In all cases was amanitin conjugated to a specific antibody distinctly more toxic to the corresponding cell line than free amanitin, or amanitin conjugated to unspecific antibodies.

[1] = molecular target: DNA-dependent RNA polymerase II of mammalian cells (Homo sapiens, UniProt P24928+P30876); conditions: complex between amanitin and RNA-polymerase II; cited from earlier work
Jurkat cells = test: apoptosis in cultures of Jurkat cells incubated with toxin; format: cell-based; conditions: own unpublished results
Text: Amatoxins (α-amanitin, β-amanitin, amanin) are cyclic peptides composed of 8 amino acids. They can be isolated from Amanita phalloides mushrooms or prepared from the building blocks by synthesis. Amatoxins inhibit specifically the DNA-dependent RNA polymerase II of mammalian cells, and by this transcription and protein biosynthesis of the cells affected. Inhibition of transcription in a cell causes stop of growth and proliferation. Though not covalently bound, the complex between amanitin and RNA-polymerase II is very tight (KD = 3nM). Dissociation of amanitin from the enzyme is a very slow process what makes recovery of an affected cell unlikely.
Phallotoxins (phalloidin, phallacidin, aminophalloidin) are cyclic peptides composed of 7 aminoacids. They bind specifically to the cytoskeletal protein actin in its polymeric form (microfilaments). By this, they prevent depolymerization of the microfilaments and disturb the proper function of the actin cytoskeleton. The actin cytoskeleton is a dense meshwork of microfilaments undergoing, under the control of actin-associated proteins, rapid cycles of assembly and disassembly essential for dynamic processes such as cell division and migration. Likewise, invasion by metastatic cells is thought to be dependent on actin. […]

actin = test: binding to actin

Substance: OKT3
- times more inhibitory for the proliferation than the amanitin conjugate of an unspecific monoclonal antibody (ALH-419) (Jurkat): 330 times

Substance: amanitin
- Kd [1]: 3 nM

Substance: phalloidin oleate
- programmed cell death (apoptosis) (Jurkat cells): caused apoptosis

Substance: thiopropionyl-aminophalloidin
- actin binding compared with phalloidin (actin): binds actin as tightly as phalloidin itself

Substance: α-amanitin
- programmed cell death (apoptosis) (Jurkat cells): undergoes programmed cell death (apoptosis)
